Patent US9802899B2, “Heterocyclic compounds as pesticides” (BAYER CROPSCIENCE AG, priority 2012, dated 2017)

Experiment: Determination of the log P values by HPLC (formic acid method)
Type: physicochemical
Details: reversed-phase column (C 18), acidic range (pH 3.4), 55° C.
Procedure: 1) Description of Method for Determination of the Log P Values (Formic Acid Method)
Eluents for determination in the acidic range (pH 3.4):
Eluent A: acetonitrile+1 ml of formic acid/liter. Eluent B: water+0.9 ml of formic acid/liter.
The lambda max values were determined in the maxima of the chromatographic signals using the UV spectra from 200 nm to 400 nm.

SMILES | log P
O=C(Nc1ccn(-c2ccccc2[N+](=O)[O-])n1)c1cccnc1C(F)(F)F [Compound I-1-416] | 2.16
O=C(Nc1ccn(-c2ccccc2[N+](=O)[O-])n1)c1c(F)cccc1F [Compound I-1-417] | 2.34
O=C(Nc1ccn(-c2ccccc2[N+](=O)[O-])n1)c1ccccc1Br [Compound I-1-418] | 2.50
O=C(Nc1ccn(-c2ccccc2[N+](=O)[O-])n1)c1ccccc1I [Compound I-1-419] | 2.61
O=C(Nc1ccn(-c2ccccn2)n1)c1ccccc1Cl [Compound I-1-420] | 2.33
O=C(Nc1ccn(-c2ncc(C(F)(F)F)cc2Cl)n1)c1ccccc1I [Compound I-1-421] | 3.43
O=C(Nc1ccn(-c2ncccc2C(F)(F)F)n1)c1ccccc1C(F)(F)F [Compound I-1-422] | 2.72
O=C(Nc1ccn(-c2ncccc2C(F)(F)F)n1)c1c(F)cccc1F [Compound I-1-423] | 2.46
O=C(Nc1ccn(-c2ncccc2C(F)(F)F)n1)c1ccccc1Br [Compound I-1-424] | 2.61
O=C(Nc1ccn(-c2ncccc2C(F)(F)F)n1)c1ccccc1Cl [Compound I-1-425] | 2.57
O=C(Nc1ccn(-c2ncccc2C(F)(F)F)n1)c1cccnc1C(F)(F)F [Compound I-1-426] | 2.69
O=C(Nc1ccn(-c2ncccc2C(F)(F)F)n1)c1ccccc1I [Compound I-1-427] | 2.72
O=C(Nc1ccn(-c2ncc(Cl)cc2Cl)n1)c1c(F)cccc1F [Compound I-1-429] | 2.77
O=C(Nc1ccn(-c2ncc(Cl)cc2Cl)n1)c1ccccc1Br [Compound I-1-430] | 2.95
O=C(Nc1ccn(-c2ncc(Cl)cc2Cl)n1)c1cccnc1Br [Compound I-1-431] | 2.29
O=C(Nc1ccn(-c2ncc(Cl)cc2Cl)n1)c1ccccc1Cl [Compound I-1-432] | 2.91
O=C(Nc1ccn(-c2ncc(Cl)cc2Cl)n1)c1ccccc1I [Compound I-1-433] | 3.06
O=C(Nc1ccn(-c2ncc(Cl)cc2Cl)n1)c1cccc(F)c1C(F)(F)F [Compound I-1-434] | 2.61
Cn1cc(C(=O)Nc2ccn(-c3ncc(Cl)cc3Cl)n2)c(I)n1 [Compound I-1-435] | 1.83
O=C(Nc1ccn(-c2ncc(Cl)cc2Cl)n1)c1ccc(F)cc1C(F)(F)F [Compound I-1-436] | 2.61
O=C(Nc1ccn(-c2ncc(Cl)cc2Cl)n1)c1cc(Cl)ccc1C(F)(F)F [Compound I-1-437] | 2.93

SMILES | log P
Cc1nc(-n2ccc(NC(=O)c3ccccc3C(F)(F)F)n2)c(F)cc1F [Compound I-1-439] | 2.85
Cc1nc(-n2ccc(NC(=O)c3cccnc3C(F)(F)F)n2)c(F)cc1F [Compound I-1-440] | 2.38
Cc1nc(-n2ccc(NC(=O)c3c(F)cccc3F)n2)c(F)cc1F [Compound I-1-441] | 2.56
Cc1nc(-n2ccc(NC(=O)c3ccccc3Br)n2)c(F)cc1F [Compound I-1-442] | 2.71
O=C(Nc1ccn(-c2ncc(F)cc2F)n1)c1ccnn1C(F)F [Compound I-1-443] | 2.16
Cc1nn(C(F)F)c(C(=O)Nc2ccn(-c3ncc(F)cc3F)n2)c1F [Compound I-1-444] | 2.65
Cc1nn(C)c(C)c1C(=O)Nc1ccn(-c2ncc(F)cc2F)n1 [Compound I-1-445] | 1.60
Cc1nn(C)cc1C(=O)Nc1ccn(-c2ncc(F)cc2F)n1 [Compound I-1-446] | 1.54
Cc1nn(C)c(C(=O)Nc2ccn(-c3ncc(F)cc3F)n2)c1[N+](=O)[O-] [Compound I-1-447] | 2.03
Cc1c([N+](=O)[O-])c(C(=O)Nc2ccn(-c3ncc(F)cc3F)n2)nn1C [Compound I-1-448] | 1.83
Cn1ncnc1C(=O)Nc1ccn(-c2ncc(F)cc2F)n1 [Compound I-1-449] | 1.67
Cn1nc(C(F)(F)C(F)(F)F)c(C(F)(F)F)c1C(=O)Nc1ccn(-c2ncc(F)cc2F)n1 [Compound I-1-450] | 3.65
Cn1nc(C(F)(F)F)c(C(=O)Nc2ccn(-c3ncc(F)cc3F)n2)c1C(F)(F)F [Compound I-1-451] | 2.79
Cn1ccc([N+](=O)[O-])c1C(=O)Nc1ccn(-c2ncc(F)cc2F)n1 [Compound I-1-452] | 2.27
Cn1cc([N+](=O)[O-])c(C(=O)Nc2ccn(-c3ncc(F)cc3F)n2)n1 [Compound I-1-453] | 1.69
Cn1cnc(C(=O)Nc2ccn(-c3ncc(F)cc3F)n2)c1[N+](=O)[O-] [Compound I-1-454] | 1.58
CCC(C)n1ncc(Cl)c1C(=O)Nc1ccn(-c2ncc(F)cc2F)n1 (stereo not drawn) [Compound I-1-455] | 3.37
CCC(C)n1ncc(I)c1C(=O)Nc1ccn(-c2ncc(F)cc2F)n1 (stereo not drawn) [Compound I-1-456] | 3.28
O=C(Nc1ccn(-c2ncc(F)cc2F)n1)c1cccnc1CC(F)(F)F [Compound I-1-457] | 2.13
O=C(Nc1ccn(-c2ncc(F)cc2F)n1)c1ccccc1OC(F)F [Compound I-1-458] | 2.53
O=C(Nc1ccn(-c2ncc(F)cc2F)n1)c1ccccc1OC(F)F [Compound I-1-459] | 2.50

SMILES | log P
O=C(Nc1ccn(-c2ncc(F)cc2F)n1)c1cccnc1C(F)F [Compound I-1-460] | 1.77
CSc1ncccc1C(=O)Nc1ccn(-c2ncc(F)cc2F)n1 [Compound I-1-461] | 2.14
CS(=O)(=O)c1ccccc1C(=O)Nc1ccn(-c2ncc(F)cc2F)n1 [Compound I-1-462] | 1.69
O=C(Nc1ccn(-c2ncc(F)cc2F)n1)c1ccccc1OC(F)(F)F [Compound I-1-463] | 2.77
O=C(Nc1ccn(-c2ncc(F)cc2F)n1)c1cccnc1OC(F)(F)F [Compound I-1-464] | 2.53
O=C(Nc1nn(-c2ncc(F)cc2F)cc1F)c1ccccc1C(F)(F)F [Compound I-1-465] | 2.44
CN(C(=O)c1ccccc1C(F)(F)F)c1ccn(-c2ncc(F)cc2F)n1 [Compound I-1-467] | 2.96
CCN(C(=O)c1ccccc1C(F)(F)F)c1ccn(-c2ncc(F)cc2F)n1 [Compound I-1-468] | 3.23
C=CCN(C(=O)c1ccccc1C(F)(F)F)c1ccn(-c2ncc(F)cc2F)n1 [Compound I-1-469] | 3.38
C#CCN(C(=O)c1ccccc1C(F)(F)F)c1ccn(-c2ncc(F)cc2F)n1 [Compound I-1-470] | 3.05
O=C(c1ccccc1C(F)(F)F)N(CC1CC1)c1ccn(-c2ncc(F)cc2F)n1 [Compound I-1-471] | 3.62
N#CCN(C(=O)c1ccccc1C(F)(F)F)c1ccn(-c2ncc(F)cc2F)n1 [Compound I-1-472] | 2.80
O=C(Nc1nn(-c2ncc(F)cc2F)cc1Cl)c1ccccc1C(F)(F)F [Compound I-1-473] | 2.62
O=C(Nc1nn(-c2ncc(F)cc2F)cc1Br)c1ccccc1C(F)(F)F [Compound I-1-474] | 2.61
O=C(Nc1nn(-c2ncc(F)cc2F)cc1[N+](=O)[O-])c1ccccc1C(F)(F)F [Compound I-1-475] | 2.63
O=C(Nc1ccn(-c2ncc(F)cc2F)n1)c1cccc(Cl)c1Cl [Compound I-1-476] | 2.72
O=C(c1cccc(Cl)c1Cl)N(C(=O)c1cccc(Cl)c1Cl)c1ccn(-c2ncc(F)cc2F)n1 [Compound I-1-477] | 4.47
Cc1nc(C)c(C(=O)Nc2ccn(-c3ncc(F)cc3F)n2)s1 [Compound I-1-478] | 1.88
O=C(Nc1ccn(-c2ncc(F)cc2F)n1)c1c(Cl)cccc1Cl [Compound I-1-479] | 2.51
Cc1cccc(C)c1C(=O)Nc1ccn(-c2ncc(F)cc2F)n1 [Compound I-1-480] | 2.51
CC(=O)c1ccccc1C(=O)Nc1ccn(-c2ncc(F)cc2F)n1 [Compound I-1-481] | 2.22

SMILES | log P
O=C(Nc1ccn(-c2ncc(F)cc2F)n1)c1cccnc1Br [Compound I-1-482] | 1.77
COc1ccc(Cl)c(C(=O)Nc2ccn(-c3ncc(F)cc3F)n2)c1 [Compound I-1-483] | 2.51
O=C(Nc1ccn(-c2ncc(F)cc2F)n1)c1c(F)cccc1Cl [Compound I-1-484] | 2.38
O=C(Nc1ccn(-c2ncc(F)cc2F)n1)c1nccnc1Cl [Compound I-1-485] | 1.89
O=C(Nc1ccn(-c2ncc(F)cc2F)n1)c1ccccc1C1CC1 [Compound I-1-486] | 2.68
CCc1cccc(F)c1C(=O)Nc1ccn(-c2ncc(F)cc2F)n1 [Compound I-1-487] | 2.69
CCc1ccccc1C(=O)Nc1ccn(-c2ncc(F)cc2F)n1 [Compound I-1-488] | 2.69
CCc1nccnc1C(=O)Nc1ccn(-c2ncc(F)cc2F)n1 [Compound I-1-489] | 2.42
CCc1ncccc1C(=O)Nc1ccn(-c2ncc(F)cc2F)n1 [Compound I-1-490] | 1.29
O=C(Nc1ccn(-c2ncc(F)cc2F)n1)c1c(F)cccc1C(F)(F)F [Compound I-1-491] | 2.57
O=C(Nc1ccn(-c2ncc(F)cc2F)n1)c1c(F)cccc1I [Compound I-1-492] | 2.56
O=C(Nc1ccn(-c2ncc(F)cc2F)n1)c1ccccc1F [Compound I-1-493] | 2.31
O=C(Nc1ccn(-c2ncc(F)cc2F)n1)c1ccsc1I [Compound I-1-494] | 2.53
O=C(Nc1ccn(-c2ncc(F)cc2F)n1)c1cccnc1I [Compound I-1-495] | 1.79
COc1ccccc1C(=O)Nc1ccn(-c2ncc(F)cc2F)n1 [Compound I-1-496] | 2.55
Cc1nc(C(F)(F)F)c(C(=O)Nc2ccn(-c3ncc(F)cc3F)n2)s1 [Compound I-1-497] | 2.35
CC1=C(C(=O)Nc2ccn(-c3ncc(F)cc3F)n2)SCCO1 [Compound I-1-498] | 2.17
Cc1ccccc1C(=O)Nc1ccn(-c2ncc(F)cc2F)n1 [Compound I-1-499] | 2.36
